Results: patent US9995734B2, “Human T cell line assay for evaluating the immunologic identity of glatiramer acetate preparations” (Mylan Inc., priority 2013, dated 2018)

System: Donor 3 GMA T-Cell Lines
Experiment: ATP proliferation assay (CellTiter Glo), Donor 3 GMA T-cell lines, incl. reactivity to non-canonical GA peptides
Assay type: cell-based, human
Conditions: for ATP proliferation assay: Day 14

glatiramer acetate [GMA]
ratio of proliferation in response to GMA:control (APC only): greater than 3.0
ATP proliferation assay (165-B2G, 10 μg/mL, control 9692): 28770 RLU
response in proliferation assay (165-B5G, 165-D8G, 165-E7G, 165-F5G, Day 56, 0, 1, 5, 10, 100 μg/mL, GMA and COP responses comparable): responded well
ATP proliferation assay (165-B5G, 10 μg/mL, control 15423): 63023 RLU
ATP proliferation assay (165-B11G, 10 μg/mL, control 18412): 56588 RLU
ATP proliferation assay (165-C4G, 10 μg/mL, control 14869): 62306 RLU
ATP proliferation assay (165-C5G, 10 μg/mL, control 14240): 76296 RLU
ATP proliferation assay (165-C8G, 10 μg/mL, control 18205): 79281 RLU
ATP proliferation assay (165-D8G, 10 μg/mL, control 30331): 136938 RLU
ATP proliferation assay (165-E7G, 10 μg/mL, control 18215): 66364 RLU
ATP proliferation assay (165-E9G, 10 μg/mL, control 17059): 52948 RLU
ATP proliferation assay (165-F2G, 10 μg/mL, control 14734): 44951 RLU
ATP proliferation assay (165-F5G, 10 μg/mL, control 16943): 100677 RLU
ATP proliferation assay (165-F8G, 10 μg/mL, control 17986): 72716 RLU
ATP proliferation assay (165-F10G, 10 μg/mL, control 13314): 42447 RLU
ATP proliferation assay (165-H11G, 10 μg/mL, control 17149): 52850 RLU
Proliferation (luminescent ATP assay), Mean (T-cell line 165-05G, 1 μg/mL antigen, Day 50 of culturing, No Antigen Value 2149): 3999 RLU
Proliferation (luminescent ATP assay), Mean (T-cell line 165-05G, 3 μg/mL antigen, Day 50 of culturing, No Antigen Value 2149): 35643 RLU
Proliferation (luminescent ATP assay), Mean (T-cell line 165-05G, 10 μg/mL antigen, Day 50 of culturing, No Antigen Value 2149): 53130 RLU
Proliferation (luminescent ATP assay), Mean (T-cell line 165-05G, 30 μg/mL antigen, Day 50 of culturing, No Antigen Value 2149): 55596 RLU
Mean, ATP proliferation assay (T-cell line 165-B2G, 1 μg/mL, Day 40): 4034
Mean, ATP proliferation assay (T-cell line 165-B2G, 3 μg/mL, Day 40): 20994
Mean, ATP proliferation assay (T-cell line 165-B2G, 10 μg/mL, Day 40): 38244
Mean, ATP proliferation assay (T-cell line 165-B5G, 1 μg/mL, Day 40): 3866
Proliferation (luminescent ATP assay), Mean (T-cell line 165-B5G, 1.25 μg/mL antigen, Day 55 of culturing, No Antigen Value 846): 1406 RLU
Proliferation (luminescent ATP assay), Mean (T-cell line 165-B5G, 2.5 μg/mL antigen, Day 55 of culturing, No Antigen Value 846): 2537 RLU
Mean, ATP proliferation assay (T-cell line 165-B5G, 3 μg/mL, Day 40): 6591
Proliferation (luminescent ATP assay), Mean (T-cell line 165-B5G, 5 μg/mL antigen, Day 55 of culturing, No Antigen Value 846): 5205 RLU
Proliferation (luminescent ATP assay), Mean (T-cell line 165-B5G, 10 μg/mL antigen, Day 55 of culturing, No Antigen Value 846): 11364 RLU
Mean, ATP proliferation assay (T-cell line 165-B5G, 10 μg/mL, Day 40): 12367
Mean, ATP proliferation assay (T-cell line 165-C4G, 1 μg/mL, Day 40): 3434
Mean, ATP proliferation assay (T-cell line 165-C4G, 3 μg/mL, Day 40): 6312
Mean, ATP proliferation assay (T-cell line 165-C4G, 10 μg/mL, Day 40): 19169
Mean, ATP proliferation assay (T-cell line 165-C5G, 1 μg/mL, Day 40): 12236
Proliferation (luminescent ATP assay), Mean (T-cell line 165-C5G, 1.25 μg/mL antigen, autologous B-LCL): 2511 RLU
Proliferation (luminescent ATP assay), Mean (T-cell line 165-C5G, 2.5 μg/mL antigen, autologous B-LCL): 26253 RLU
Mean, ATP proliferation assay (T-cell line 165-C5G, 3 μg/mL, Day 40): 36288
Proliferation (luminescent ATP assay), Mean (T-cell line 165-C5G, 5 μg/mL antigen, autologous B-LCL): 67559 RLU
Proliferation (luminescent ATP assay), Mean (T-cell line 165-C5G, 10 μg/mL antigen, autologous B-LCL): 74630 RLU
Mean, ATP proliferation assay (T-cell line 165-C5G, 10 μg/mL, Day 40): 45444
Mean, ATP proliferation assay (T-cell line 165-C8G, 1 μg/mL, tested with the Donor 3 COP lines of Table 25): 5605 RLU
Mean, ATP proliferation assay (T-cell line 165-C8G, 3 μg/mL, tested with the Donor 3 COP lines of Table 25): 5002 RLU
Mean, ATP proliferation assay (T-cell line 165-C8G, 10 μg/mL, tested with the Donor 3 COP lines of Table 25): 30200 RLU
Mean, ATP proliferation assay (T-cell line 165-D8G, 1 μg/mL, Day 40): 9427
Mean, ATP proliferation assay (T-cell line 165-D8G, 3 μg/mL, Day 40): 12644
Mean, ATP proliferation assay (T-cell line 165-D8G, 10 μg/mL, Day 40): 31264
Mean, ATP proliferation assay (T-cell line 165-E7G, 1 μg/mL, Day 40): 2569
Proliferation (luminescent ATP assay), Mean (T-cell line 165-E7G, 1.25 μg/mL antigen, autologous B-LCL, Day 55): 8875 RLU
Proliferation (luminescent ATP assay), Mean (T-cell line 165-E7G, 2.5 μg/mL antigen, autologous B-LCL, Day 55): 10248 RLU
Mean, ATP proliferation assay (T-cell line 165-E7G, 3 μg/mL, Day 40): 6610
Proliferation (luminescent ATP assay), Mean (T-cell line 165-E7G, 5 μg/mL antigen, autologous B-LCL, Day 55): 26934 RLU
Proliferation (luminescent ATP assay), Mean (T-cell line 165-E7G, 10 μg/mL antigen, autologous B-LCL, Day 55): 30721 RLU
Mean, ATP proliferation assay (T-cell line 165-E7G, 10 μg/mL, Day 40): 14279
Proliferation (luminescent ATP assay), Mean (T-cell line 165-E9G, 1 μg/mL antigen, Day 50 of culturing, No Antigen Value 1742): 1889 RLU
Mean, ATP proliferation assay (T-cell line 165-E9G, 1 μg/mL, Day 40): 2961
Proliferation (luminescent ATP assay), Mean (T-cell line 165-E9G, 1.25 μg/mL antigen, autologous B-LCL): 253 RLU
Proliferation (luminescent ATP assay), Mean (T-cell line 165-E9G, 2.5 μg/mL antigen, autologous B-LCL): 1647 RLU
Proliferation (luminescent ATP assay), Mean (T-cell line 165-E9G, 3 μg/mL antigen, Day 50 of culturing, No Antigen Value 1742): 5974 RLU
Mean, ATP proliferation assay (T-cell line 165-E9G, 3 μg/mL, Day 40): 7837
Proliferation (luminescent ATP assay), Mean (T-cell line 165-E9G, 5 μg/mL antigen, autologous B-LCL): 12964 RLU
Proliferation (luminescent ATP assay), Mean (T-cell line 165-E9G, 10 μg/mL antigen, autologous B-LCL): 13809 RLU
Mean, ATP proliferation assay (T-cell line 165-E9G, 10 μg/mL, Day 40): 24935
Proliferation (luminescent ATP assay), Mean (T-cell line 165-E9G, 30 μg/mL antigen, Day 50 of culturing, No Antigen Value 1742): 39472 RLU
Proliferation (luminescent ATP assay), Mean (T-cell line 165-E9G, 10 μpg/mL antigen, Day 50 of culturing, No Antigen Value 1742): 37352 RLU
Mean, ATP proliferation assay (T-cell line 165-F2G, 1 μg/mL, Day 40): 1753
Mean, ATP proliferation assay (T-cell line 165-F2G, 3 μg/mL, Day 40): 1422
Mean, ATP proliferation assay (T-cell line 165-F2G, 10 μg/mL, Day 40): 1502
Mean, ATP proliferation assay (T-cell line 165-F5G, 1 μg/mL, Day 40): 5669
Proliferation (luminescent ATP assay), Mean (T-cell line 165-F5G, 1.25 μg/mL antigen, autologous B-LCL): 1071 RLU
Proliferation (luminescent ATP assay), Mean (T-cell line 165-F5G, 2.5 μg/mL antigen, autologous B-LCL): 19012 RLU
Mean, ATP proliferation assay (T-cell line 165-F5G, 3 μg/mL, Day 40): 14024
Proliferation (luminescent ATP assay), Mean (T-cell line 165-F5G, 5 μg/mL antigen, autologous B-LCL): 45384 RLU
Proliferation (luminescent ATP assay), Mean (T-cell line 165-F5G, 10 μg/mL antigen, autologous B-LCL): 48029 RLU
Mean, ATP proliferation assay (T-cell line 165-F5G, 10 μg/mL, Day 40): 23774
Mean, ATP proliferation assay (T-cell line 165-F8G, 1 μg/mL, Day 40): 4804
Mean, ATP proliferation assay (T-cell line 165-F8G, 3 μg/mL, Day 40): 6841
Mean, ATP proliferation assay (T-cell line 165-F8G, 10 μg/mL, Day 40): 11880
Proliferation (luminescent ATP assay), Mean (T-cell line 165-F10G, 1 μg/mL antigen, Day 50 of culturing, No Antigen Value 3752): 4734 RLU
Mean, ATP proliferation assay (T-cell line 165-F10G, 1 μg/mL, Day 40): 6015
Proliferation (luminescent ATP assay), Mean (T-cell line 165-F10G, 1.25 μg/mL antigen, autologous B-LCL): 5731 RLU
Proliferation (luminescent ATP assay), Mean (T-cell line 165-F10G, 2.5 μg/mL antigen, autologous B-LCL): 38905 RLU
Proliferation (luminescent ATP assay), Mean (T-cell line 165-F10G, 3 μg/mL antigen, Day 50 of culturing, No Antigen Value 3752): 35371 RLU
Mean, ATP proliferation assay (T-cell line 165-F10G, 3 μg/mL, Day 40): 17900
Proliferation (luminescent ATP assay), Mean (T-cell line 165-F10G, 5 μg/mL antigen, autologous B-LCL): 66355 RLU
Proliferation (luminescent ATP assay), Mean (T-cell line 165-F10G, 10 μg/mL antigen, Day 50 of culturing, No Antigen Value 3752): 58913 RLU
Proliferation (luminescent ATP assay), Mean (T-cell line 165-F10G, 10 μg/mL antigen, autologous B-LCL): 57329 RLU
Mean, ATP proliferation assay (T-cell line 165-F10G, 10 μg/mL, Day 40): 30198
Proliferation (luminescent ATP assay), Mean (T-cell line 165-F10G, 30 μg/mL antigen, Day 50 of culturing, No Antigen Value 3752): 59173 RLU
Proliferation (luminescent ATP assay), Mean (T-cell line 165-H11G, 1 μg/mL antigen, Day 50 of culturing, No Antigen Value 1485): 9569 RLU
Mean, ATP proliferation assay (T-cell line 165-H11G, 1 μg/mL, Day 40): 10205
Proliferation (luminescent ATP assay), Mean (T-cell line 165-H11G, 1.25 μg/mL antigen, autologous B-LCL): 8 RLU
Proliferation (luminescent ATP assay), Mean (T-cell line 165-H11G, 2.5 μg/mL antigen, autologous B-LCL): 33793 RLU
Proliferation (luminescent ATP assay), Mean (T-cell line 165-H11G, 3 μg/mL antigen, Day 50 of culturing, No Antigen Value 1485): 46539 RLU
Mean, ATP proliferation assay (T-cell line 165-H11G, 3 μg/mL, Day 40): 27515
Proliferation (luminescent ATP assay), Mean (T-cell line 165-H11G, 5 μg/mL antigen, autologous B-LCL): 70949 RLU
Proliferation (luminescent ATP assay), Mean (T-cell line 165-H11G, 10 μg/mL antigen, Day 50 of culturing, No Antigen Value 1485): 49104 RLU
Proliferation (luminescent ATP assay), Mean (T-cell line 165-H11G, 10 μg/mL antigen, autologous B-LCL): 72728 RLU
Mean, ATP proliferation assay (T-cell line 165-H11G, 10 μg/mL, Day 40): 44067
Proliferation (luminescent ATP assay), Mean (T-cell line 165-H11G, 30 μg/mL antigen, Day 50 of culturing, No Antigen Value 1485): 32179 RLU
responsiveness in proliferation assay (all 8 Donor 3 GMA cell lines tested, Day 32, 10 μg/mL (Table 19)): responsive
responsiveness in proliferation assay (eleven of the 12 cell lines (all but F2G), Day 40, 1, 3 or 10 μg/mL (Table 21)): responsive
